Results from patent US20180008587A1, “THIOHYDANTOIN ANDROGEN RECEPTOR ANTAGONISTS FOR THE TREATMENT OF CANCER” (Jaressen Pharmaceutica NV, priority 2016, published 2018).
Positions count from the first letter of the chain named. pEC50, pIC50: −log10 of the molar value. Like-named read-outs stand apart in the source and are kept apart here.

Key:
Assay type in all cases: cell-based
[1] = target: T1, F876L mutant Androgen Receptor (AR-F876L) (Homo sapiens, UniProt P10275, F877L); assay: LNCaP-AR-F876L ANT reporter assay (ARE firefly luciferase, antagonist mode); details: for Emax: read-out: LNCaP-AR-F876L ANT MAX % Inh; for IC50: read-out: LNCaP-AR-F876L ANT pIC50 (converted)
T1 construct: expressed in transfected cells; host or cells: LNCaP (LNCaP F876L)
T1 sequence (P10275 1-920 F877L): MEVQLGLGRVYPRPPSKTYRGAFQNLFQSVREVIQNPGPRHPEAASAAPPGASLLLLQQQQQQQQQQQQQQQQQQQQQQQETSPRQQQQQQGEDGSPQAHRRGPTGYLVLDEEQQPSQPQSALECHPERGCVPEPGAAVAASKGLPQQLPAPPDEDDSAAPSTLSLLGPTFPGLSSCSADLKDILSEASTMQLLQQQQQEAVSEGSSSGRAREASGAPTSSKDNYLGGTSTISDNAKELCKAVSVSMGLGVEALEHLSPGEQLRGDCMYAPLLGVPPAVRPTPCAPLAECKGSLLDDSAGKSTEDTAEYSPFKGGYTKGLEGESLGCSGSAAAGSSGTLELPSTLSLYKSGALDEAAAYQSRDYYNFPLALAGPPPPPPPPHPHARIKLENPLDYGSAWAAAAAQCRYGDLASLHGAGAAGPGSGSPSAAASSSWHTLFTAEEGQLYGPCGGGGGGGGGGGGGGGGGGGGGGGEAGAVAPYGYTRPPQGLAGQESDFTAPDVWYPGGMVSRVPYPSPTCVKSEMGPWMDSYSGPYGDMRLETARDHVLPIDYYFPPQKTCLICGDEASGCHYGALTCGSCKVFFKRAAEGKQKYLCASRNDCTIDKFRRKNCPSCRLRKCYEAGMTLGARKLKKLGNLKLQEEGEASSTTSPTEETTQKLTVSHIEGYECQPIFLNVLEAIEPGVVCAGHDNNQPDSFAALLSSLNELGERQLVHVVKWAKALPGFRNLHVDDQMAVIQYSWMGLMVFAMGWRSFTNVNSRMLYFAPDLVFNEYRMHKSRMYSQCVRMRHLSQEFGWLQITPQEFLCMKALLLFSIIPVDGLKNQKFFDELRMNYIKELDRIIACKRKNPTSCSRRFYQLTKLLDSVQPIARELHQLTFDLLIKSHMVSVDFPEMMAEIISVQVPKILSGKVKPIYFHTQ
In short: (§1)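 Puromycin-selected LNCaP pools, grown in charcoal-stripped serum, were incubated 20-24 h at 37 °C with compounds, plus agonist challenge at 400 pM for wild-type and 600 pM for F876L.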

[2] = target: T1, F876L mutant Androgen Receptor (AR-F876L); assay: LNCaP-AR-F876L AG reporter assay (ARE firefly luciferase, agonist mode); details: for EC50: agonist mode, −Log10(EC50 [Molar]), read-out: LNCaP-AR-F876L AG pEC50 (converted); for Emax: read-out: LNCaP-AR-F876L AG MAX % Stim
In short: (§2)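 Cells: stable LNCaP pools, AR-wt or AR-F876L, in charcoal-stripped serum. Agonist challenge for antagonist mode was 400 pM (WT) and 600 pM (F876L). Luminescence was measured after 20-24 h incubation.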

[3] = target: T2, wild-type Androgen Receptor (AR-wt) (Homo sapiens, UniProt P10275); assay: LNCaP-AR-wt ANT reporter assay (ARE firefly luciferase, antagonist mode); details: for IC50: antagonist mode, 400 pM R-1881 challenge, −Log10(IC50 [Molar]), read-out: LNCaP-AR-wt ANT pIC50 (converted); for Emax: read-out: LNCaP-AR-wt ANT MAX % Inh
T2 construct: expressed in transfected cells; host or cells: LNCaP (LNCaP AR (cs))
T2 sequence (P10275 1-920): T1 sequence (P10275 1-920 F877L) with L877F
In short: as §1

[4] = target: T2, wild-type Androgen Receptor (AR-wt); assay: LNCaP-AR-wt AG reporter assay (ARE firefly luciferase, agonist mode); details: for EC50: agonist mode, −Log10(EC50 [Molar]), read-out: LNCaP-AR-wt AG pEC50 (converted); for Emax: read-out: LNCaP-AR-wt AG MAX % Stim
In short: as §2

[5] = maximum % inhibition of R1881 control response over tested concentration range
[6] = maximum % stimulation (agonist response) over tested concentration range

SMILES | Emax [1, 5] | IC50 [1] | EC50 [2] | Emax [2, 6] | IC50 [3] | Emax [3, 5] | EC50 [4] | Emax [4, 6] | pIC50 [1] | Emax [1] | pEC50 [2] | Emax [2] | Emax [3] | pEC50 [4] | Emax [4]
N#Cc1ncc(N2C(=O)C3(CCC3)N(c3ccc(C(=O)NCCc4ccncc4)c(F)c3)C2=S)cc1C(F)(F)F [Cpd 14, 4-[6-[6-cyano-5-(trifluoromethyl)-3-pyridyl]-5-oxo-7-thioxo-6,8-diazaspiro[3.4]octan-8-yl]-2-fluoro-N-[2-(4-pyridyl)ethyl]benzamide] | 99.7% | 112 nM | > 15100 nM | -0.1% | 87.1 nM | 102% | > 15100 nM | 0% | – | – | – | – | – | – | –
Cc1ccc(CNC(=O)c2ccc(N3C(=S)N(c4cnc(C#N)c(C(F)(F)F)c4)C(=O)C34CCC4)cc2F)o1 [Cpd 26, 4-[6-[6-cyano-5-(trifluoromethyl)-3-pyridyl]-5-oxo-7-thioxo-6,8-diazaspiro[3.4]octan-8-yl]-2-fluoro-N-[(5-methyl-2-furyl)methyl]benzamide] | 97.9% | 891 nM | > 15100 nM | 0.3% | 813 nM | 97.9% | > 15100 nM | 1.1% | – | – | – | – | – | – | –
CCN1CCC(Oc2ccc(N3C(=S)N(c4cnc(C#N)c(C)c4)C(=O)C34CCC4)cc2)CC1 [Cpd 61, 5-[8-[4-[(1-ethyl-4-piperidyl)oxy]phenyl]-5-oxo-7-thioxo-6,8-diazaspiro[3.4]octan-6-yl]-3-methyl-pyridine-2-carbonitrile] | 100% | 380 nM | > 15100 nM | 0.7% | 1260 nM | 100% | > 15100 nM | 1.1% | – | – | – | – | – | – | –
Cc1ccc(N2C(=S)N(c3cnc(C#N)c(C(F)(F)F)c3)C(=O)C23CCC3)cc1F [Cpd 115, 5-[8-(3-fluoro-4-methyl-phenyl)-5-oxo-7-thioxo-6,8-diazaspiro[3.4]octan-6-yl]-3-(trifluoromethyl)pyridine-2-carbonitrile] | 96.1% | 437 nM | > 15100 nM | 3.4% | 372 nM | 100% | > 15100 nM | 1.1% | – | – | – | – | – | – | –
Cc1cc(N2C(=O)C3(CCC3)N(c3ccc(Oc4ccncn4)cc3)C2=S)cnc1C#N [Cpd 62, 3-methyl-5-[5-oxo-8-(4-pyrimidin-4-yloxyphenyl)-7-thioxo-6,8-diazaspiro[3.4]octan-6-yl]pyridine-2-carbonitrile] | – | – | – | – | 339 nM | – | – | – | 7.04 | 99.7% | < 4.82 | 0.4% | 98.8% | < 4.82 | 0.8%
Cc1cncc(-c2ccc(N3C(=S)N(c4cnc(C#N)c(C)c4)C(=O)C34CCC4)cc2)c1 [Cpd 114, 3-methyl-5-[8-[4-(5-methyl-3-pyridyl)phenyl]-5-oxo-7-thioxo-6,8-diazaspiro[3.4]octan-6-yl]pyridine-2-carbonitrile] | – | 355 nM | – | – | 240 nM | – | – | – | – | 97.8% | < 4.82 | 3.3% | 98.7% | < 4.82 | 0.7%
Cc1cc(N2C(=O)C3(CCC3)N(c3ccc(OC4CCNCC4)cc3)C2=S)cnc1C#N [Cpd 83, 3-methyl-5-[5-oxo-8-[4-(4-piperidyloxy)phenyl]-7-thioxo-6,8-diazaspiro[3.4]octan-6-yl]pyridine-2-carbonitrile] | 99.5% | 1000 nM | > 15100 nM | 0.5% | 2240 nM | 98.8% | > 15100 nM | 0.1% | – | – | – | – | – | – | –
Cc1cc(N2C(=O)C3(CCC3)N(c3ccc(-c4cncnc4)cc3)C2=S)cnc1C#N [Cpd 93, 3-methyl-5-[5-oxo-8-(4-pyrimidin-5-ylphenyl)-7-thioxo-6,8-diazaspiro[3.4]octan-6-yl]pyridine-2-carbonitrile] | – | 234 nM | – | – | 407 nM | – | – | – | – | 100% | < 4.82 | 0.8% | 100% | < 4.82 | 0.9%
